Values after ≈ are worked out from the molar mass of the structure shown. Values joined by “and” are separate entries in the source; they are usually repeats but may differ in a detail not shown here. Identical values can stand only once. Like-named read-outs stand apart in the source and are kept apart here.
What was measured:
[1] = tested on: Mycobacterium tuberculosis H37Rv (ATCC 27294); experiment: Minimum Inhibitory Concentration (MIC), broth microdilution in 96-well plates; format: cell-based
[2] = tested on: Mycobacterium tuberculosis H37Rv (ATCC 27294); experiment: microbe, parasite or virus in culture; format: cell-based; conditions: 504 h

Compound	MIC [1]	MBC [2] [µg/mL]	MIC ([1]; M. tuberculosis H37Rv, 10th day of incubation, concentration with no visible turbidity, read-out: MIC) [µg/mL]	MIC ([1]; M. tuberculosis H37Rv, 10th day of incubation, same MIC expressed in nM, read-out: MIC) [nM]
O=C(NCCOc1ccc(-c2ccccc2)cc1)c1cc([N+](=O)[O-])cc([N+](=O)[O-])c1 [Compound 1]	0.063 µg/mL and 0.155 µM	–	–	–
O=C(NCCOc1ccc(Br)cc1)c1cc([N+](=O)[O-])cc([N+](=O)[O-])c1 [Compound 5]	0.063 µg/mL and 0.154 µM	–	–	–
O=C(NCCOc1ccc(C(F)(F)F)cc1)c1cc([N+](=O)[O-])cc([N+](=O)[O-])c1 [Compound 6]	0.125 µg/mL and 0.313 µM	–	–	–
O=C(NCCOc1ccc(Cc2ccccc2)cc1)c1cc([N+](=O)[O-])cc([N+](=O)[O-])c1 [Compound 7]	0.063 µg/mL and 0.149 µM	–	–	–
O=C(NCCCOc1ccc(-c2ccccc2)cc1)c1cc([N+](=O)[O-])cc([N+](=O)[O-])c1 [Compound 8, N-(3-(4-phenylphenoxy)propyl)-3,5-dinitrobenzamide]	0.063 µg/mL and 0.149 µM	0.125 (≈ 0.297 µM)	–	–
COc1ccc(OCCCNC(=O)c2cc([N+](=O)[O-])cc([N+](=O)[O-])c2)cc1 [Compound 9, N-(3-(4-methoxyphenoxy)propyl)-3,5-dinitrobenzamide]	0.063 µg/mL and 0.168 µM	0.125 (≈ 0.333 µM)	–	–
O=C(NCCCOc1ccc(OC(F)(F)F)cc1)c1cc([N+](=O)[O-])cc([N+](=O)[O-])c1 [Compound 10, N-(3-(4-trifluoromethoxyphenoxy)propyl)-3,5-dinitrobenzamide]	0.063 µg/mL and 0.147 µM	0.25 (≈ 0.582 µM)	–	–
O=C(NCCCOc1ccc(F)cc1)c1cc([N+](=O)[O-])cc([N+](=O)[O-])c1 [Compound 11, N-(3-(4-fluorophenoxy)propyl)-3,5-dinitrobenzamide]	0.063 µg/mL and 0.173 µM	0.125 (≈ 0.344 µM)	–	–
O=C(NCCCOc1ccc(C(F)(F)F)cc1)c1cc([N+](=O)[O-])cc([N+](=O)[O-])c1 [Compound 12, N-(3-(4-trifluoromethylphenoxy)propyl)-3,5-dinitrobenzamide]	0.125 µg/mL and 0.302 µM	–	–	–
O=C(NCCCOc1ccccc1)c1cc([N+](=O)[O-])cc([N+](=O)[O-])c1 [Compound 13, N-(3-(phenoxy)propyl)-3,5-dinitrobenzamide]	0.063 µg/mL and 0.182 µM	0.125 (≈ 0.362 µM)	–	–
O=C(NCCCCCOc1ccc(-c2ccccc2)cc1)c1cc([N+](=O)[O-])cc([N+](=O)[O-])c1 [Compound 14, N-(5-(4-phenylphenoxy)pentyl)-3,5-dinitrobenzamide]	0.063 µg/mL and 0.14 µM	0.125 (≈ 0.278 µM)	–	–
COc1ccc(OCCCCCNC(=O)c2cc([N+](=O)[O-])cc([N+](=O)[O-])c2)cc1 [Compound 15, N-(5-(4-methoxyphenoxy)pentyl)-3,5-dinitrobenzamide]	0.063 µg/mL and 0.156 µM	0.125 (≈ 0.31 µM)	–	–
O=C(NCCCCCOc1ccc(OC(F)(F)F)cc1)c1cc([N+](=O)[O-])cc([N+](=O)[O-])c1 [Compound 16, N-(5-(4-trifluoromethoxyphenoxy)pentyl)-3,5-dinitrobenzamide]	0.031 µg/mL and 0.0678 µM	0.063 (≈ 0.138 µM)	–	–
O=C(NCCCCCOc1ccc([N+](=O)[O-])cc1)c1cc([N+](=O)[O-])cc([N+](=O)[O-])c1 [Compound 17, N-(5-(4-nitrophenoxy)pentyl)-3,5-dinitrobenzamide]	0.031 µg/mL and 0.0741 µM	0.125 (≈ 0.299 µM)	–	–
O=C(NCCCCCOc1ccc(F)cc1)c1cc([N+](=O)[O-])cc([N+](=O)[O-])c1 [Compound 18, N-(5-(4-fluorophenoxy)pentyl)-3,5-dinitrobenzamide]	0.031 µg/mL and 0.0792 µM	0.063 (≈ 0.161 µM)	–	–
O=C(NCCCCCOc1ccc(Cl)cc1)c1cc([N+](=O)[O-])cc([N+](=O)[O-])c1 [Compound 19, N-(5-(4-chlorophenoxy)pentyl)-3,5-dinitrobenzamide]	0.016 µg/mL and 0.0392 µM	0.063 (≈ 0.154 µM)	–	–
O=C(NCCCCCOc1ccc(C(F)(F)F)cc1)c1cc([N+](=O)[O-])cc([N+](=O)[O-])c1 [Compound 20, N-(5-(4-trifluoromethylphenoxy)pentyl)-3,5-dinitrobenzamide]	0.031 µg/mL and 0.0702 µM	0.063 (≈ 0.143 µM)	–	–
O=C(NCCCCCOc1ccc(Cc2ccccc2)cc1)c1cc([N+](=O)[O-])cc([N+](=O)[O-])c1 [Compound 21, N-(5-(4-benzylphenoxy)pentyl)-3,5-dinitrobenzamide]	0.063 µg/mL and 0.136 µM	0.25 (≈ 0.539 µM)	–	–
O=C(NCCCCCOc1ccc(Br)cc1)c1cc([N+](=O)[O-])cc([N+](=O)[O-])c1 [Compound 22, N-(5-(4-bromophenoxy)pentyl)-3,5-dinitrobenzamide]	0.031 µg/mL and 0.0685 µM	0.063 (≈ 0.139 µM)	–	–
O=C(NCCCCCOc1ccccc1)c1cc([N+](=O)[O-])cc([N+](=O)[O-])c1 [Compound 23, N-(5-(phenoxy)pentyl)-3,5-dinitrobenzamide]	0.031 µg/mL and 0.083 µM	0.063 (≈ 0.169 µM)	–	–

Compound	MIC [1]	MBC [2] [µg/mL]	MIC ([1]; M. tuberculosis H37Rv, 10th day of incubation, concentration with no visible turbidity, read-out: MIC) [µg/mL]	MIC ([1]; M. tuberculosis H37Rv, 10th day of incubation, same MIC expressed in nM, read-out: MIC) [nM]
COc1ccc(OCCCCCCCCCNC(=O)c2cc([N+](=O)[O-])cc([N+](=O)[O-])c2)cc1 [Compound 24, N-(9-(4-methoxyphenoxy)nonyl)-3,5-dinitrobenzamide]	0.016 µg/mL and 0.0348 µM	0.031 (≈ 0.0675 µM)	–	–
COc1ccc(OCCCCCCCCCCCNC(=O)c2cc([N+](=O)[O-])cc([N+](=O)[O-])c2)cc1 [Compound 26, N-(11-(4-methoxyphenoxy)undecyl)-3,5-dinitrobenzamide]	0.063 µg/mL and 0.129 µM	0.125 (≈ 0.256 µM)	–	–
C[N+]1(C)CCN(C(=O)c2cc([N+](=O)[O-])cc([N+](=O)[O-])c2)CC1 [Compound 28, 4-(3,5-dinitrobenzoyl)-1,1-dimethylpiperazin-1-ium]	> 16 µg/mL	> 16	–	–
O=C(c1cc([N+](=O)[O-])cc([N+](=O)[O-])c1)N1CCN(Cc2ccccc2)CC1 [Compound 29, (3,5-dinitrophenyl)-4-benzylpiperazin-1-yl-methanone]	2 µg/mL and 5.4 µM	4 (≈ 10.8 µM)	–	–
O=C(c1cc([N+](=O)[O-])cc([N+](=O)[O-])c1)N1CCC(Cc2ccccc2)CC1 [Compound 31, (3,5-dinitrophenyl)-4-benzylpiperidin-1-yl-methanone]	0.5 µg/mL and 1.35 µM	2 (≈ 5.41 µM)	–	–
COc1ccc(OC2CCN(C(=O)c3cc([N+](=O)[O-])cc([N+](=O)[O-])c3)CC2)cc1 [Compound 32, (3,5-dinitrophenyl)(4-(4-methoxyphenoxy)piperidin-1-yl)methanone]	2 µg/mL and 4.98 µM	–	–	–
O=C(c1cc([N+](=O)[O-])cc([N+](=O)[O-])c1)N1CCC(O)CC1 [Compound 33, (3,5-dinitrophenyl)-4-hydroxypiperidin-1-yl-methanone]	> 16 µg/mL	16 (≈ 54.2 µM)	–	–
O=C(c1cc([N+](=O)[O-])cc([N+](=O)[O-])c1)N1CCCCC1 [Compound 34, (3,5-dinitrophenyl)-piperidin-1-yl-methanone]	> 16 µg/mL	16 (≈ 57.3 µM)	–	–
O=C(c1cc([N+](=O)[O-])cc([N+](=O)[O-])c1)N1CCOCC1 [Compound 35, (3,5-dinitrophenyl)(morpholino)methanone]	> 16 µg/mL	> 16	–	–
CCCCCCCCCOCCCCCCCCCNC(=O)c1cc([N+](=O)[O-])cc([N+](=O)[O-])c1 [Compound 36, N-(9-(nonyloxy)nonyl)-3,5-dinitrobenzamide]	0.063 µg/mL and 0.127 µM	–	–	–
O=C(NCCCCCCCCCO)c1cc([N+](=O)[O-])cc([N+](=O)[O-])c1 [Compound 37, N-(9-hydroxynonyl)-3,5-dinitrobenzamide]	0.25 µg/mL and 0.707 µM	–	–	–
O=C(NCCCCCO)c1cc([N+](=O)[O-])cc([N+](=O)[O-])c1 [Compound 38, N-(5-hydroxypentyl)-3,5-dinitrobenzamide]	2 µg/mL and 6.73 µM	–	–	–
O=C(NCCCO)c1cc([N+](=O)[O-])cc([N+](=O)[O-])c1 [Compound 39, N-(3-hydroxypropyl)-3,5-dinitrobenzamide]	4 µg/mL and 14.9 µM	–	–	–
O=C(NCCO)c1cc([N+](=O)[O-])cc([N+](=O)[O-])c1 [Compound 40, N-(2-hydroxyethyl)-3,5-dinitrobenzamide]	16 µg/mL and 62.7 µM	–	–	–
O=C(NCCCCCCCCCCCO)c1cc([N+](=O)[O-])cc([N+](=O)[O-])c1 [Compound 41, N-(11-hydroxyundecyl)-3,5-dinitrobenzamide]	0.125 µg/mL and 0.328 µM	0.25 (≈ 0.655 µM)	–	–
O=C(NCCOc1ccccc1)c1cc([N+](=O)[O-])cc(C(F)(F)F)c1 [Compound 42]	–	–	0.25	671
O=C(NCCCCCN1CCCCC1)c1cc([N+](=O)[O-])cc([N+](=O)[O-])c1 [Compound 44]	16 µg/mL and 43.9 µM	> 16	–	–
O=[N+]([O-])c1cc(C2=NCCO2)cc([N+](=O)[O-])c1 [Compound 47, 2-(3,5-dinitrophenyl)-4,5-dihydrooxazole]	2 µg/mL and 8.43 µM	4 (≈ 16.9 µM)	–	–
O=[N+]([O-])c1cc(C2=NCCCO2)cc([N+](=O)[O-])c1 [Compound 48, 2-(3,5-dinitrophenyl)-5,6-dihydro-4H-1,3-oxazine]	16 µg/mL and 63.7 µM	> 16	–	–

— EP4345092A1, “NITROBENZAMIDE COMPOUNDS, METHODS AND USES THEREOF” (Faculdade de Farmácia da Universidade de Lisboa, priority 2022, dated 2024)
